In ChEMBL document CHEMBL1151757, “Synthesis, radiosynthesis, and biological evaluation of fluorine-18-labeled 2beta-carbo(fluoroalkoxy)-3beta-(3'-((Z)-2-haloethenyl)phenyl)nortropanes: candidate radioligands for in vivo imaging of the serotonin transporter with positron emission tomography” (J Med Chem, 2008):

Assays:
Midbrain [1] = assay: Drug uptake in anesthetized cynomolgus monkey brain midbrain after 15.5 mins postinjection; assay type: ADME, organism-based, Macaca fascicularis; parameters: unit not given here; settings: in vivo
[2] = Ratio of drug uptake in thalamus to cerebellum in anesthetized cynomolgus monkey after 115 mins postinjection; assay type: ADME, organism-based, Macaca fascicularis; settings: in vivo
[3] = Ratio of drug uptake in occipital lobe to cerebellum in anesthetized cynomolgus monkey after 185 mins postinjection; assay type: ADME, organism-based, Macaca fascicularis; settings: in vivo
Pons [4] = assay: Drug uptake in anesthetized cynomolgus monkey brain pons after 2.5 mins postinjection; assay type: ADME, organism-based, Macaca fascicularis; settings: in vivo
[5] = Drug uptake in anesthetized cynomolgus monkey brain frontal lobe after 27.5 mins postinjection; assay type: ADME, organism-based, Macaca fascicularis; settings: in vivo
Midbrain [6] = assay: Drug uptake in anesthetized cynomolgus monkey brain midbrain after 35 mins postinjection; assay type: ADME, organism-based, Macaca fascicularis; parameters: unit not given here; settings: in vivo
Medulla [7] = assay: Drug uptake in anesthetized cynomolgus monkey brain medulla after 145 mins postinjection; assay type: ADME, organism-based, Macaca fascicularis; settings: in vivo
Putamen [8] = assay: Drug uptake in anesthetized cynomolgus monkey brain putamen after 22.5 mins postinjection; assay type: ADME, organism-based, Macaca fascicularis; parameters: unit not given here; settings: in vivo, 0.375 h
[9] = Drug uptake in anesthetized cynomolgus monkey brain occipital lobe after 75 mins postinjection; assay type: ADME, organism-based, Macaca fascicularis; settings: in vivo, 1.25 h
[10] = Ratio of drug uptake in midbrain to cerebellum in anesthetized cynomolgus monkey after 85 mins postinjection; assay type: ADME, organism-based, Macaca fascicularis; settings: in vivo
Thalamus [11] = assay: Drug uptake in anesthetized cynomolgus monkey brain thalamus after 225 mins postinjection; assay type: ADME, organism-based, Macaca fascicularis; parameters: unit not given here; settings: in vivo, 3.75 h
Thalamus [12] = assay: Drug uptake in anesthetized cynomolgus monkey brain thalamus after 85 mins postinjection; assay type: ADME, organism-based, Macaca fascicularis; parameters: unit not given here; settings: in vivo
[13] = Ratio of drug uptake in occipital lobe to cerebellum in anesthetized cynomolgus monkey after 205 mins postinjection; assay type: ADME, organism-based, Macaca fascicularis; settings: in vivo
Thalamus [14] = assay: Drug uptake in anesthetized cynomolgus monkey brain thalamus after 125 mins postinjection; assay type: ADME, organism-based, Macaca fascicularis; parameters: unit not given here; settings: in vivo
[15] = Ratio of drug uptake in midbrain to cerebellum in anesthetized cynomolgus monkey after 9.5 mins postinjection; assay type: ADME, organism-based, Macaca fascicularis; settings: in vivo
Putamen [16] = assay: Drug uptake in anesthetized cynomolgus monkey brain putamen after 15.5 mins postinjection; assay type: ADME, organism-based, Macaca fascicularis; parameters: unit not given here; settings: in vivo
[17] = Drug uptake in anesthetized cynomolgus monkey brain frontal lobe after 115 mins postinjection; assay type: ADME, organism-based, Macaca fascicularis; settings: in vivo
Thalamus [18] = assay: Drug uptake in anesthetized cynomolgus monkey brain thalamus after 4.5 mins postinjection; assay type: ADME, organism-based, Macaca fascicularis; parameters: unit not given here; settings: in vivo, 0.075 h
[19] = Ratio of drug uptake in pons to cerebellum in anesthetized cynomolgus monkey after 105 mins postinjection; assay type: ADME, organism-based, Macaca fascicularis; settings: in vivo, 1.75 h
Putamen [20] = assay: Drug uptake in anesthetized cynomolgus monkey brain putamen after 35 mins postinjection; assay type: ADME, organism-based, Macaca fascicularis; parameters: unit not given here; settings: in vivo
Pons [21] = assay: Drug uptake in anesthetized cynomolgus monkey brain pons after 18.5 mins postinjection; assay type: ADME, organism-based, Macaca fascicularis; settings: in vivo
Thalamus [22] = assay: Drug uptake in anesthetized cynomolgus monkey brain thalamus after 22.5 mins postinjection; assay type: ADME, organism-based, Macaca fascicularis; parameters: unit not given here; settings: in vivo, 0.375 h
Medulla [23] = assay: Drug uptake in anesthetized cynomolgus monkey brain medulla after 15.5 mins postinjection; assay type: ADME, organism-based, Macaca fascicularis; settings: in vivo
[24] = Drug uptake in anesthetized cynomolgus monkey brain frontal lobe after 1.5 mins postinjection; assay type: ADME, organism-based, Macaca fascicularis; settings: in vivo, 0.025 h
Putamen [25] = assay: Drug uptake in anesthetized cynomolgus monkey brain putamen after 55 mins postinjection; assay type: ADME, organism-based, Macaca fascicularis; parameters: unit not given here; settings: in vivo
Caudate [26] = assay: Drug uptake in anesthetized cynomolgus monkey brain caudate after 2.5 mins postinjection; assay type: ADME, organism-based, Macaca fascicularis, Caudate nucleus; settings: in vivo
[27] = Ratio of drug uptake in medulla to cerebellum in anesthetized cynomolgus monkey after 18.5 mins postinjection; assay type: ADME, organism-based, Macaca fascicularis; settings: in vivo
Pons [28] = assay: Drug uptake in anesthetized cynomolgus monkey brain pons after 1.5 mins postinjection; assay type: ADME, organism-based, Macaca fascicularis; settings: in vivo, 0.025 h
[29] = Ratio of drug uptake in occipital lobe to cerebellum in anesthetized cynomolgus monkey after 18.5 mins postinjection; assay type: ADME, organism-based, Macaca fascicularis; settings: in vivo
Putamen [30] = assay: Drug uptake in anesthetized cynomolgus monkey brain putamen after 2.5 mins postinjection; assay type: ADME, organism-based, Macaca fascicularis; settings: in vivo
Pons [31] = assay: Drug uptake in anesthetized cynomolgus monkey brain pons after 75 mins postinjection; assay type: ADME, organism-based, Macaca fascicularis; settings: in vivo, 1.25 h
Medulla [32] = assay: Drug uptake in anesthetized cynomolgus monkey brain medulla after 95 mins postinjection; assay type: ADME, organism-based, Macaca fascicularis; settings: in vivo
Midbrain [33] = assay: Drug uptake in anesthetized cynomolgus monkey brain midbrain after 0.5 mins postinjection; assay type: ADME, organism-based, Macaca fascicularis; parameters: unit not given here; settings: in vivo
Caudate [34] = assay: Drug uptake in anesthetized cynomolgus monkey brain caudate after 95 mins postinjection; assay type: ADME, organism-based, Macaca fascicularis, Caudate nucleus; settings: in vivo
Pons [35] = assay: Drug uptake in anesthetized cynomolgus monkey brain pons after 45 mins postinjection; assay type: ADME, organism-based, Macaca fascicularis; settings: in vivo, 0.75 h
Midbrain [36] = assay: Drug uptake in anesthetized cynomolgus monkey brain midbrain after 175 mins postinjection; assay type: ADME, organism-based, Macaca fascicularis; settings: in vivo
[37] = Ratio of drug uptake in occipital lobe to cerebellum in anesthetized cynomolgus monkey after 235 mins postinjection; assay type: ADME, organism-based, Macaca fascicularis; settings: in vivo
Caudate [38] = assay: Drug uptake in anesthetized cynomolgus monkey brain caudate after 75 mins postinjection; assay type: ADME, organism-based, Macaca fascicularis, Caudate nucleus; settings: in vivo, 1.25 h
[39] = Ratio of drug uptake in frontal lobe to cerebellum in anesthetized cynomolgus monkey after 135 mins postinjection; assay type: ADME, organism-based, Macaca fascicularis; settings: in vivo, 2.25 h
Thalamus [40] = assay: Drug uptake in anesthetized cynomolgus monkey brain thalamus after 6.5 mins postinjection; assay type: ADME, organism-based, Macaca fascicularis; parameters: unit not given here; settings: in vivo
Midbrain [41] = assay: Drug uptake in anesthetized cynomolgus monkey brain midbrain after 22.5 mins postinjection; assay type: ADME, organism-based, Macaca fascicularis; parameters: unit not given here; settings: in vivo, 0.375 h
[42] = Drug uptake in anesthetized cynomolgus monkey brain frontal lobe after 105 mins postinjection; assay type: ADME, organism-based, Macaca fascicularis; settings: in vivo, 1.75 h
[43] = Ratio of drug uptake in caudate to cerebellum in anesthetized cynomolgus monkey after 0.5 mins postinjection; assay type: ADME, organism-based, Macaca fascicularis; settings: in vivo
Caudate [44] = assay: Drug uptake in anesthetized cynomolgus monkey brain caudate after 195 mins postinjection; assay type: ADME, organism-based, Macaca fascicularis, Caudate nucleus; settings: in vivo, 3.25 h
Midbrain [45] = assay: Drug uptake in anesthetized cynomolgus monkey brain midbrain after 95 mins postinjection; assay type: ADME, organism-based, Macaca fascicularis; parameters: unit not given here; settings: in vivo
[46] = Drug uptake in anesthetized cynomolgus monkey brain occipital lobe after 6.5 mins postinjection; assay type: ADME, organism-based, Macaca fascicularis; parameters: unit not given here; settings: in vivo
Putamen [47] = assay: Drug uptake in anesthetized cynomolgus monkey brain putamen after 215 mins postinjection; assay type: ADME, organism-based, Macaca fascicularis; settings: in vivo
Pons [48] = assay: Drug uptake in anesthetized cynomolgus monkey brain pons after 155 mins postinjection; assay type: ADME, organism-based, Macaca fascicularis; settings: in vivo
Putamen [49] = assay: Drug uptake in anesthetized cynomolgus monkey brain putamen after 12.5 mins postinjection; assay type: ADME, organism-based, Macaca fascicularis; parameters: unit not given here; settings: in vivo
Thalamus [50] = assay: Drug uptake in anesthetized cynomolgus monkey brain thalamus after 1.5 mins postinjection; assay type: ADME, organism-based, Macaca fascicularis; settings: in vivo, 0.025 h
[51] = Ratio of drug uptake in midbrain to cerebellum in anesthetized cynomolgus monkey after 135 mins postinjection; assay type: ADME, organism-based, Macaca fascicularis; settings: in vivo, 2.25 h
Thalamus [52] = assay: Drug uptake in anesthetized cynomolgus monkey brain thalamus after 75 mins postinjection; assay type: ADME, organism-based, Macaca fascicularis; parameters: unit not given here; settings: in vivo, 1.25 h
Midbrain [53] = assay: Drug uptake in anesthetized cynomolgus monkey brain midbrain after 135 mins postinjection; assay type: ADME, organism-based, Macaca fascicularis; settings: in vivo, 2.25 h
[54] = Ratio of drug uptake in pons to cerebellum in anesthetized cynomolgus monkey after 35 mins postinjection; assay type: ADME, organism-based, Macaca fascicularis; settings: in vivo
Caudate [55] = assay: Drug uptake in anesthetized cynomolgus monkey brain caudate after 12.5 mins postinjection; assay type: ADME, organism-based, Macaca fascicularis, Caudate nucleus; settings: in vivo
Thalamus [56] = assay: Drug uptake in anesthetized cynomolgus monkey brain thalamus after 2.5 mins postinjection; assay type: ADME, organism-based, Macaca fascicularis; parameters: unit not given here; settings: in vivo
[57] = Ratio of drug uptake in pons to cerebellum in anesthetized cynomolgus monkey after 85 mins postinjection; assay type: ADME, organism-based, Macaca fascicularis; settings: in vivo
Midbrain [58] = assay: Drug uptake in anesthetized cynomolgus monkey brain midbrain after 195 mins postinjection; assay type: ADME, organism-based, Macaca fascicularis; settings: in vivo, 3.25 h
[59] = Drug uptake in anesthetized cynomolgus monkey brain cerebellum after 45 mins postinjection; assay type: ADME, organism-based, Macaca fascicularis; settings: in vivo, 0.75 h
Caudate [60] = assay: Drug uptake in anesthetized cynomolgus monkey brain caudate after 6.5 mins postinjection; assay type: ADME, organism-based, Macaca fascicularis, Caudate nucleus; settings: in vivo
[61] = Ratio of drug uptake in pons to cerebellum in anesthetized cynomolgus monkey after 125 mins postinjection; assay type: ADME, organism-based, Macaca fascicularis; settings: in vivo
Putamen [62] = assay: Drug uptake in anesthetized cynomolgus monkey brain putamen after 135 mins postinjection; assay type: ADME, organism-based, Macaca fascicularis; settings: in vivo, 2.25 h
[63] = Ratio of drug uptake in caudate to cerebellum in anesthetized cynomolgus monkey after 95 mins postinjection; assay type: ADME, organism-based, Macaca fascicularis; settings: in vivo
[64] = Drug uptake in anesthetized cynomolgus monkey brain frontal lobe after 22.5 mins postinjection; assay type: ADME, organism-based, Macaca fascicularis; settings: in vivo, 0.375 h
[65] = Drug uptake in anesthetized cynomolgus monkey brain cerebellum after 22.5 mins postinjection; assay type: ADME, organism-based, Macaca fascicularis; settings: in vivo, 0.375 h
[66] = Drug uptake in anesthetized cynomolgus monkey brain cerebellum after 65 mins postinjection; assay type: ADME, organism-based, Macaca fascicularis; settings: in vivo
[67] = Drug uptake in anesthetized cynomolgus monkey brain cerebellum after 155 mins postinjection; assay type: ADME, organism-based, Macaca fascicularis; settings: in vivo
Pons [68] = assay: Drug uptake in anesthetized cynomolgus monkey brain pons after 95 mins postinjection; assay type: ADME, organism-based, Macaca fascicularis; settings: in vivo

In the case of O=C(OCC[18F])C1C2CCC(CC1c1cccc(/C=C\Br)c1)N2 (stereo not drawn), the Drug uptake (Midbrain [1]) is reported as 4.06, the Ratio [2] is reported as 1.5 and the Ratio [3] is reported as 1.3. The Drug uptake (Pons [4]) was 0.42, the Drug uptake [5] was 2.69 and the Drug uptake (Midbrain [6]) was 4.68. For the same compound, the Drug uptake (Medulla [7]) was 3.92, the Drug uptake (Putamen [8]) was 4.33 and the Drug uptake [9] was 3.49. It also gave a Ratio [10] of 1.5, a Drug uptake (Thalamus [11]) of 2.95 and a Drug uptake (Thalamus [12]) of 4.41. For the same compound, the Ratio [13] was 1.3, the Drug uptake (Thalamus [14]) was 4.15 and the Ratio [15] was 1.1. It also gave a Drug uptake (Putamen [16]) of 4.05, a Drug uptake [17] of 2.69 and a Drug uptake (Thalamus [18]) of 1.44. For the same compound, the Ratio [19] was 1.5, the Drug uptake (Putamen [20]) was 4.8 and the Drug uptake (Pons [21]) was 4.13. For the same compound, the Drug uptake (Thalamus [22]) was 3.43, the Drug uptake (Medulla [23]) was 4.15 and the Drug uptake [24] was 0.04. The Drug uptake (Putamen [25]) was 5.05, the Drug uptake (Caudate [26]) was 0.36 and the Ratio [27] was 1.2. For the same compound, the Drug uptake (Pons [28]) was 0.09, the Ratio [29] was 0.8 and the Drug uptake (Putamen [30]) was 0.4. It also gave a Drug uptake (Pons [31]) of 4.51, a Drug uptake (Medulla [32]) of 4.55 and a Drug uptake (Midbrain [33]) of 0.01. The Drug uptake (Caudate [34]) was 4.15, the Drug uptake (Pons [35]) was 4.45 and the Drug uptake (Midbrain [36]) was 4.13. For the same compound, the Ratio [37] was 1.2, the Drug uptake (Caudate [38]) was 3.94 and the Ratio [39] was 1.1. It also gave a Drug uptake (Thalamus [40]) of 2.44, a Drug uptake (Midbrain [41]) of 4.28 and a Drug uptake [42] of 2.69. It also gave a Ratio [43] of 0.9, a Drug uptake (Caudate [44]) of 3.08 and a Drug uptake (Midbrain [45]) of 4.91. It also gave a Drug uptake [46] of 2.17, a Drug uptake (Putamen [47]) of 3.24 and a Drug uptake (Pons [48]) of 3.92. It also gave a Drug uptake (Putamen [49]) of 3.69, a Drug uptake (Thalamus [50]) of 0.08 and a Ratio [51] of 1.9. The Drug uptake (Thalamus [52]) was 4.29, the Drug uptake (Midbrain [53]) was 4.67 and the Ratio [54] was 1.1. The Drug uptake (Caudate [55]) was 2.61, the Drug uptake (Thalamus [56]) was 0.29 and the Ratio [57] was 1.4. It also gave a Drug uptake (Midbrain [58]) of 3.91, a Drug uptake [59] of 3.76 and a Drug uptake (Caudate [60]) of 1.92. For the same compound, the Ratio [61] was 1.6, the Drug uptake (Putamen [62]) was 4.4 and the Ratio [63] was 1.4. For the same compound, the Drug uptake [64] was 2.54, the Drug uptake [65] was 3.81 and the Drug uptake [66] was 3.5. The Drug uptake [67] was 2.19 and the Drug uptake (Pons [68]) was 4.36.
